This note sets out measurements from ChEMBL document CHEMBL1201862, “PubChem BioAssay data set” (2004).

Some test systems named below: ACHN; BT-549; HCT-15; HOP-62; HT-29; KM12; LOX IMVI; MCF7; MDA-MB-435; Malme-3M; OVCAR-4; OVCAR-5; RXF 393; SF-268; SK-OV-3; TK-10; U-251; UO-31; K562; HCC 2998.
Holding throughout (test): NCI tumour cell line growth inhibition, 48 h

The structures appear in SMILES notation.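 In this assay, cells in 96-well plates receive the compound at five concentrations for 48 hours. Endpoints are linearly interpolated between the surrounding concentrations. GI50 marks 50% less growth.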 The source made the active and inactive calls. Rule as the data show it: active = GI50 up to about 1.1 µM and inactive = higher. Peptide text beside a SMILES is read from it. * marks the point of attachment. Boc = CC(C)(C)OC(=O)*

With `CCOCC(NC(=O)C(CC(C)C)NC(=O)OC(C)(C)C)C(N)=O` (stereo not drawn) (Boc-Leu-Ser(Et)-NH2; configuration not given here), the GI50 was > 100 µM (inactive) in the assay with ACHN; > 100 µM (inactive) in the assay with BT-549; more than 100 µM with HCT-15; > 100 µM (inactive) in the assay with HOP-62; > 100 µM (inactive) with HT-29; > 100 µM (inactive) with KM12. Also, the GI50 with LOX IMVI, in the assay with MCF7, in the assay with MDA-MB-435, with Malme-3M, in the assay on OVCAR-4 and in the assay with OVCAR-5 was > 100 µM (inactive) in each case. For the same molecule, the GI50 in the assay on RXF 393 was > 100 µM (inactive); in the assay with SF-268, > 100 µM (inactive); in the assay with SK-OV-3, > 100 µM (inactive); in the assay on TK-10, > 100 µM (inactive); in the assay with U-251, 1.46 µM (inactive); in the assay with UO-31 it was > 100 µM (inactive).
On to `N#Cc1cc2c(cc1Cl)Sc1nccn1S2(=O)=O`, for which the GI50 in the assay on ACHN is 2.08 µM (inactive); in the assay on BT-549, 3.32 µM (inactive); with HCT-15, 1.25 µM; with HOP-62 it was 3.38 µM (inactive); in the assay on HT-29 it was 0.977 µM (active); in the assay on K562, 2.69 µM (inactive). Further, the GI50 was 5.79 µM (inactive) with KM12; 1.57 µM (inactive) with LOX IMVI; 3.8 µM (inactive) with MCF7; 4.91 µM (inactive) in the assay on MDA-MB-435; 6.79 µM (inactive) in the assay on Malme-3M; 6.05 µM (inactive) in the assay on OVCAR-4. The GI50 in the assay with OVCAR-5 was 14.4 µM (inactive); with RXF 393 it was 4.61 µM (inactive); in the assay with SF-268, 3.33 µM (inactive); with SK-OV-3 it was 4.47 µM (inactive); in the assay with TK-10, 13.5 µM (inactive); in the assay with U-251, 1.6 µM (inactive). Besides, in the assay on UO-31, the GI50 was 5.52 µM (inactive).
Turning to `Cc1cccc(N2C(=O)C3ON(C(C(N)=O)c4ccccc4)C(c4c5ccccc5c(Cl)c5ccccc45)C3C2=O)c1C` (stereo not given), the GI50 with ACHN was 9.16 µM (inactive); in the assay on BT-549 it was 9.98 µM (inactive); with HCT-15 it was 7.38 µM; with HOP-62 it was 10.6 µM (inactive); with HT-29, 7.82 µM (inactive); in the assay on K562, 12.7 µM (inactive). Moreover, the GI50 in the assay on KM12 was 1.85 µM (inactive); with LOX IMVI, 7.1 µM (inactive); in the assay with MCF7, 7.64 µM (inactive); with MDA-MB-435 it was 6.31 µM (inactive); in the assay on Malme-3M, 11.4 µM (inactive); with OVCAR-4, 9.57 µM (inactive). Further, the GI50 in the assay with OVCAR-5 is 10.3 µM (inactive); in the assay with RXF 393 it was 5.66 µM (inactive); with SF-268, 9.59 µM (inactive); in the assay with SK-OV-3, 18.8 µM (inactive); in the assay on TK-10, 11.8 µM (inactive); in the assay on U-251, 8.02 µM (inactive). For the same molecule, in the assay on UO-31, the GI50 was 16.4 µM (inactive).
Consider `Cc1[nH]c(-c2ccccc2)c(O)c1C(=O)OC12CC3CC(CC(C3)C1)C2`, for which the GI50 is 16.1 µM (inactive) with ACHN; 17.1 µM (inactive) in the assay on BT-549; 11.9 µM in the assay on HCT-15; 14.7 µM (inactive) in the assay on HOP-62; 3.99 µM (inactive) with HT-29; > 100 µM (inactive) with K562. Further, the GI50 with KM12 is 5.01 µM (inactive); in the assay on MCF7 it was 14.1 µM (inactive); in the assay on MDA-MB-435 it was 15 µM (inactive); in the assay with Malme-3M, 14.1 µM (inactive); with OVCAR-4, 16.3 µM (inactive); in the assay with OVCAR-5, 13.8 µM (inactive). Also, the GI50 is 6.73 µM (inactive) with RXF 393; 13.9 µM (inactive) in the assay on SF-268; 14.7 µM (inactive) in the assay on SK-OV-3; 14.9 µM (inactive) with U-251; 17 µM (inactive) with UO-31.
For the molecule `CC1CCCc2c(C#N)c(N)nc(-c3ccc(Cl)cc3)c21` (stereo not given), the GI50 with ACHN was 17.6 µM (inactive); in the assay with BT-549, 17.9 µM (inactive); in the assay on HCT-15, 11.7 µM; in the assay on HOP-62, 5.73 µM (inactive); in the assay with HT-29 it was 6.75 µM (inactive); in the assay on K562 it was 8.69 µM (inactive). For the same molecule, the GI50 with KM12 is 17.9 µM (inactive); with LOX IMVI, 16.6 µM (inactive); in the assay on MCF7, 19.6 µM (inactive); in the assay with MDA-MB-435 it was 23.8 µM (inactive); in the assay with Malme-3M, 18.7 µM (inactive); with OVCAR-5 it was 15.6 µM (inactive). The GI50 in the assay on RXF 393 is 6.87 µM (inactive); in the assay with SF-268 it was 31.1 µM (inactive); with SK-OV-3, 38.1 µM (inactive); in the assay on TK-10 it was 29.8 µM (inactive); in the assay on U-251, 22.2 µM (inactive); in the assay with UO-31, 13.8 µM (inactive).
As to `Cn1c2ccccc2c(=O)c2cccc(C(=O)NC(CCCNC(=N)N)C(=O)O)c21` (stereo not given), the GI50 in the assay on ACHN is > 100 µM (inactive); with BT-549, > 100 µM (inactive); in the assay with HCC 2998 it was > 100 µM (inactive); in the assay with HCT-15 it was more than 100 µM; in the assay on HOP-62 it was > 100 µM (inactive); in the assay on HT-29, > 100 µM (inactive). The GI50 with K562, in the assay with KM12, in the assay on LOX IMVI, in the assay on MCF7, in the assay with MDA-MB-435 and in the assay with Malme-3M was > 100 µM (inactive) in each case. The GI50 in the assay on OVCAR-4, with OVCAR-5, in the assay with SF-268, in the assay on SK-OV-3, in the assay with TK-10 and with U-251 was > 100 µM (inactive) in each case. Further, the GI50 in the assay with UO-31 was > 100 µM (inactive).
In the case of `N#C/C(C(=O)CCl)=C1\Nc2ccccc2O1`, the GI50 in the assay on BT-549 is 2.17 µM (inactive); in the assay on HCT-15, 2.01 µM; with HOP-62, 4.89 µM (inactive); in the assay on HT-29, 4.13 µM (inactive); with K562, 3.24 µM (inactive); in the assay with KM12, 3.89 µM (inactive). The GI50 is 1.65 µM (inactive) in the assay with LOX IMVI; 2.56 µM (inactive) with MCF7; 3.24 µM (inactive) in the assay with MDA-MB-435; 7.28 µM (inactive) in the assay on Malme-3M; 1.49 µM (inactive) in the assay with OVCAR-4; 1.85 µM (inactive) in the assay with RXF 393. Further, the GI50 in the assay on SF-268 is 2.67 µM (inactive); with SK-OV-3 it was 12.1 µM (inactive); in the assay on TK-10 it was 7.01 µM (inactive); in the assay with U-251 it was 5.36 µM (inactive); with UO-31, 3.62 µM (inactive).
For `CN(C)N1C(=O)CC2(CCN(CCCC(=O)c3ccc(F)cc3)CC2)C1=O`, the GI50 with ACHN is > 100 µM (inactive); with BT-549, > 100 µM (inactive); with HCT-15, more than 100 µM; in the assay on HOP-62, > 100 µM (inactive); in the assay on HT-29, > 100 µM (inactive); with K562 it was > 100 µM (inactive). In addition, the GI50 with KM12, in the assay with LOX IMVI, with MCF7, with MDA-MB-435, in the assay on Malme-3M and in the assay on OVCAR-5 was > 100 µM (inactive) in each case. Also, the GI50 in the assay on RXF 393, with SF-268, in the assay with SK-OV-3, with TK-10, with U-251 and in the assay on UO-31 was > 100 µM (inactive) in each case.
For `C[C@@]1(Br)C[C@@](C)(Cl)[C@@H](Br)CC1/C=C/Cl` (stereo not given in full), the GI50 is 18.1 µM (inactive) in the assay on ACHN; 19.1 µM (inactive) in the assay with BT-549; 31.6 µM (inactive) in the assay on HCC 2998; 27 µM with HCT-15; 17 µM (inactive) in the assay with HOP-62; 16.1 µM (inactive) in the assay on HT-29. For the same molecule, the GI50 in the assay with K562 is 15.3 µM (inactive); in the assay with KM12, 16.1 µM (inactive); in the assay with LOX IMVI, 17.6 µM (inactive); with MCF7, 16.6 µM (inactive); in the assay on MDA-MB-435, 16.9 µM (inactive); in the assay on Malme-3M, < 0.01 µM (active). Moreover, the GI50 in the assay with OVCAR-4 is 24.8 µM (inactive); in the assay with OVCAR-5 it was 15.1 µM (inactive); in the assay with SF-268 it was 11.1 µM (inactive); in the assay on SK-OV-3 it was 17.5 µM (inactive); in the assay with TK-10, 18.4 µM (inactive); with U-251, 19.3 µM (inactive). Besides, in the assay on UO-31, the GI50 is 18.5 µM (inactive).
With `OCCN(C1=NCCN1)/[N+](=C\c1ccccn1)[CH-]c1ccccn1`, the GI50 in the assay on ACHN is > 100 µM (inactive); in the assay on BT-549, > 100 µM (inactive); in the assay with HCC 2998 it was > 100 µM (inactive); in the assay on HCT-15, more than 100 µM; in the assay with HOP-62, > 100 µM (inactive); with HT-29, > 100 µM (inactive). In addition, the GI50 in the assay with K562, with KM12, in the assay on LOX IMVI, in the assay on MCF7, in the assay with MDA-MB-435 and in the assay with Malme-3M was > 100 µM (inactive) throughout. In addition, the GI50 in the assay with OVCAR-4, in the assay on OVCAR-5, in the assay on SF-268, in the assay on SK-OV-3, in the assay with U-251 and in the assay on UO-31 was > 100 µM (inactive) in each case.
Turning to `Cc1oc2c(c1C)S(=O)(=O)C(C#N)C(c1ccccc1)N2` (stereo not given), the GI50 was > 100 µM (inactive) in the assay with ACHN; 45.4 µM (inactive) with BT-549; 53.8 µM (inactive) with HCC 2998; 38.7 µM with HCT-15; > 100 µM (inactive) in the assay with HOP-62; 67.6 µM (inactive) with HT-29. For the same molecule, the GI50 with KM12 is 50.4 µM (inactive); in the assay on LOX IMVI, 43.8 µM (inactive); with MCF7, 51.5 µM (inactive); in the assay on MDA-MB-435, 34.5 µM (inactive); in the assay with Malme-3M, 37.7 µM (inactive); in the assay on OVCAR-4 it was 29.6 µM (inactive). The GI50 was 91.6 µM (inactive) with OVCAR-5; 56 µM (inactive) with SF-268; 86.5 µM (inactive) in the assay on SK-OV-3; > 100 µM (inactive) with TK-10; 55 µM (inactive) with U-251; 41.5 µM (inactive) in the assay with UO-31.
